System: corneas of colored rabbit after excimer laser abrasion
Assay: accelerating activity for corneal wound healing after excimer laser treatment (histological observation of corneal slices)
Assay type: in vivo
Conditions: eye drop 100 μg/ml; for epithelium regeneration in the excimer-laser irradiated portion / inflammatory changes / thickness of the regenerated epithelium / vacuolation and fibroblast growth in the tunica propria / under the epithelium: single droplet twice a day for 5 to 7 days, optical microscope
Experimental: The following tests were performed with respect to the accelerating activity for the corneal wound healing after excimer laser treatment.
HP 1 and HP 2 were diluted with 1.2 ml of an oxyglutathion eye-perfusion/washing solution (trade name: BSS plus, manufactured by Santen Seiyaku) to obtain a diluted solution in a final concentration of 0.1 mg/ml. 1000 μg/ml of EGF was diluted with 1 ml of the oxyglutathion eye-perfusion/washing solution to obtain a diluted solution in a final concentration of 0.1 mg/ml. FN was diluted with 10 ml of the oxyglutathion eye-perfusion/washing solution to obtain a diluted solution in a final concentration of 0.1 mg/ml.
A colored rabbit was used as a test animal. The following surgical operation was applied to the rabbit.
An excimer laser was radiated to the corneas of both eyes of the rabbit under the condition of 180 mj/10 nsec (10 Hz) per pulse. By this radiation, the surface of central corneal parenchyma was cut off by abrasion in the form of a meniscus having a diameter of 4.5 mm (9.9 diopter) and a maximum center-depth of 70 μm. The excimer laser was radiated by using Omunimed (trade name) manufactured by Summit (U.S.A.).
Each of the aforementioned samples was administered to both eyes twice a day. A single droplet (about 50 μl) was administrated once in the morning and the afternoon for 5 to 7 days.
As Comparative examples, eye drops were prepared by dissolving the aforementioned samples in the oxyglutathion eye perfusion/washing solution in accordance with Table 2 and administered to both eyes of the rabbit.
After completion of droplet administration, right and left eyes were taken out from the rabbit and fixed with a glutathion aldehyde/formalin fixing solution. After the fixation, each cornea including a laser irradiated portion and a non-irradiated portion were excised out. Then, paraffin blocks were prepared in accordance with a customary method and thin-film slices of 5 μm thick were prepared by means of a microtome. The obtained corneal slices were stained with H.E. (hematoxylin-eosin) and then subjected to special staining such as PAS or trichrome.

| Compound | overall corneal wound healing accelerating / corneal therapeutic effect (conclusion) (after excimer laser treatment) | epithelium regeneration in the excimer-laser irradiated portion | inflammatory changes | thickness of the regenerated epithelium | vacuolation and fibroblast growth in the tunica propria / under the epithelium |
| --- | --- | --- | --- | --- | --- |
| CC[C@H](C)[C@H](NC(=O)[C@H](Cc1ccc(O)cc1)NC(=O)[C@@H]1CCCN1C(=O)[C@H](CCCNC(=N)N)NC(=O)[C@H](CCCNC(=N)N)NC(C)=O)C(=O)N[C@@H](CC(C)C)C(=O)O [HP2, N-acetyl-Arg-Arg-Pro-Tyr-Ile-Leu-OH] | confirmed to have an corneal wound healing accelerating effect | observed in the entire irradiated portion | not observed | nonuniform | Vacuolation and fibroblast growth were observed |
| EGF: epithelial cell growth factor, manufactured by Bio Medical Technologies |  | observed in the entire irradiated portion | inflammatory changes were observed | nearly uniform | vacuolation and fibroblast growth were observed |
| fibronectin [FN] |  | observed in the entire irradiated portion | inflammatory changes were observed | nonuniform | relatively significant |

Source: patent US5846940A, “Corneal therapeutic agent” (Okamoto; Sinseiro, priority 1994, dated 1998)
